This note sets out measurements from patent US20190031618A1, “BENZIMIDAZOLE DERIVATIVES USEFUL AS CB-1 INVERSE AGONISTS” (Janssen Pharmaceutica NV, priority 2015, published 2019).

Structures are written as SMILES.

The target in experiment [1] is Human CB2R (Cannabinoid receptor 2) (Homo sapiens, UniProt P34972). As to the kind of experiment: CB-2 in vitro cAMP (HTRF) assay. It counts as cell-based. The conditions noted are these: HEK cells, cAMP HTRF, 250 nM forskolin; mean where tested more than once; read-out: CB2 HEK_cAMP EC50. In outline:
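Competitive HTRF read-out (d2-labelled cAMP vs cryptate antibody) quantifies cAMP in stably transfected HEK-293 cells, seeded the day before at 4E5 cells/mL. Stimulation buffer: HBSS, 5 mM HEPES, 0.1% BSA, 0.5 mM IBMX; forskolin prepared at 1.5 μM in buffer; compounds serially diluted 1/3 in DMSO.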
(In general: TR-FRET usually uses a lanthanide donor and a delayed reading to cut background.)

Experiment [2] addresses Human CB1R (Cannabinoid receptor 1) (Homo sapiens, UniProt P21554). As to the kind of experiment: CB-1 in vitro cAMP (HTRF) assay. It counts as cell-based. The conditions noted are these: HEK cells, cAMP HTRF, 250 nM forskolin; mean where tested more than once; read-out: CB1 HEK_cAMP EC50. In outline: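 Intracellular cAMP from HTRF ratio (d2-cAMP vs Eu-cryptate anti-cAMP), converted to nM via per-plate standards, in stable human CB1R HEK-293 cells.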

Sequence of Human CB2R (Cannabinoid receptor 2) (P34972 whole entry): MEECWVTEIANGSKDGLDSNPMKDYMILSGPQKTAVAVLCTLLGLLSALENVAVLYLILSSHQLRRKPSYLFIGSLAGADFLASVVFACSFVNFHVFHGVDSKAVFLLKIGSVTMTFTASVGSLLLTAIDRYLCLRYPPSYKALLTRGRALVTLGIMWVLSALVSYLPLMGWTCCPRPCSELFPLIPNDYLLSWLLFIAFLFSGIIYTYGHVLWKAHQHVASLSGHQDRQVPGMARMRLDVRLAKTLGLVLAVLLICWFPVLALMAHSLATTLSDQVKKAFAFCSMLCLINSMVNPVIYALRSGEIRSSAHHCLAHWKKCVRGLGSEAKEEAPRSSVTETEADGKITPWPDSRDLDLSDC
Sequence of Human CB1R (Cannabinoid receptor 1) (P21554 whole entry): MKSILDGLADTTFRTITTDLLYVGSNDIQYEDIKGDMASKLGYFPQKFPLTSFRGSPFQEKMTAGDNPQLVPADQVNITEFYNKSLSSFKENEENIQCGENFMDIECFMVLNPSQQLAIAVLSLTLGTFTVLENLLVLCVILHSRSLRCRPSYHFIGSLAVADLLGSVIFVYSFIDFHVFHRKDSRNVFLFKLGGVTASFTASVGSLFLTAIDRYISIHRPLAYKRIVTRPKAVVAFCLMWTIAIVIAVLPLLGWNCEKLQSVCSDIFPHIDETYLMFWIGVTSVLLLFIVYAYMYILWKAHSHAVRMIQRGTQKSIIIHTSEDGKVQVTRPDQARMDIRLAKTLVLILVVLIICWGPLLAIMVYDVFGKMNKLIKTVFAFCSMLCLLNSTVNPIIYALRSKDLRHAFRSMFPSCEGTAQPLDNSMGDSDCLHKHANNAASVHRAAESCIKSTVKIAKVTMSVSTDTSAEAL

`O=C(O)c1ccc(C(=O)N2CCC(n3c(C4CC4)nc4ccc(C(c5ccc(Cl)cc5)c5ccc(Cl)cc5)cc43)CC2)cc1` [Example 246]: the values for the EC50 in experiment [1] and in experiment [2] were more than 10000 nM and 1430 nM, respectively.
For `CCc1csc(C(c2ccc(Cl)cc2)c2ccc3ncn(Cc4ccc(Cl)cc4)c3c2)n1` (stereo not drawn) [Example 460], in that order: more than 10000 nM and more than 10000 nM.
For `CCc1nc2ccc(C(C(=O)O)(c3ccc(Cl)cc3)c3ccc(Cl)cc3)cc2n1C1CCN(S(=O)(=O)C(F)(F)F)CC1` [Example 266], in that order: more than 10000 nM and 18.4 nM.
For `O=C(O)c1cncc(CN2CCC(n3c(C4CC4)nc4ccc(C(c5ccc(Cl)cc5)c5ccc(Cl)cc5)cc43)CC2)c1` [Example 123], in that order: 7500 nM and 13.4 nM.
Regarding `Clc1ccc(Cn2cnc3ccc(C(c4ccc(Cl)cc4)c4nccs4)cc32)cc1` (stereo not drawn) [Example 466], the values for the EC50 in experiment [1] and in experiment [2] were 1430 nM and more than 8700 nM, respectively.
For `O=S(=O)(N1CCC(n2cnc3ccc(C(c4ccc(Cl)cc4)c4nccs4)cc32)CC1)C(F)(F)F` (stereo not drawn) [Example 398], in that order: more than 10000 nM and 21 nM.
`Cc1ccc(S(=O)(=O)N2CCC(n3c(C4CC4)nc4ccc(C(c5ccc(Cl)cc5)c5ccc(Cl)cc5)cc43)CC2)cc1C(=O)O` [Example 188]: the EC50 in experiment [1] was more than 10000 nM; in experiment [2], 160 nM.
In the same order, the values of `NC(=O)COc1ccc(Cn2c(C3CC3)nc3ccc(C(c4ccc(Cl)cc4)c4ccc(Cl)cc4)cc32)cc1` [Example 182] are 2930 nM and 255 nM.
In the same order, the values of `O=C(O)Cc1ccc(N2CCC(n3c(C4CC4)nc4ccc(C(c5ccc(Cl)cc5)c5ccc(Cl)cc5)cc43)CC2)cc1` [Example 157] are 3380 nM and 190 nM.
As for `O=C(NCCCO)c1cccc(S(=O)(=O)N2CCC(n3c(C4CC4)nc4ccc(C(c5ccc(Cl)cc5)c5ccc(Cl)cc5)cc43)CC2)c1` [Example 191], the EC50 in experiment [1] was more than 10000 nM; in experiment [2] it was 21 nM.
For `CCOC(=O)N1CCC(n2c(C)nc3ccc(C(c4ccc(Cl)cc4)c4nccs4)cc32)CC1` (stereo not drawn) [Example 445], in that order: more than 10000 nM and 947 nM.
In the case of `O=C(c1nc[nH]n1)N1CCC(n2c(C3CC3)nc3ccc(C(c4ccccc4)c4ccccc4)cc32)CC1` [Example 200], the EC50 in experiment [1] was determined as 6310 nM; in experiment [2] it was 4720 nM.
For `COc1cccc(Cn2c(C3CC3)nc3ccc(C(c4ccc(Cl)cc4)c4ccc(Cl)cc4)cc32)c1` [Example 146], the EC50 in experiment [1] was more than 10000 nM; in experiment [2], 33.7 nM.
For `COC(=O)c1ccc(OCCn2c(C3CC3)nc3ccc(C(c4ccc(Cl)cc4)c4ccc(Cl)cc4)cc32)nc1` [Example 34], the results for the EC50 in experiment [1] and in experiment [2] were 6800 nM and 37.5 nM, respectively.
For the compound `O=C(O)CCC(=O)N1CCC(n2c(C3CC3)nc3ccc(C(c4ccc(Cl)cc4)c4ccc(Cl)cc4)cc32)CC1` [Example 269], the values for the EC50 in experiment [1] and in experiment [2] were more than 10000 nM and 1030 nM, respectively.
For `Clc1ccc(C(c2ccc3nc(-c4ccsc4)n(-c4cccc(Cl)c4)c3c2)c2nccs2)cc1` (stereo not drawn) [Example 375], in that order: more than 10000 nM and 755 nM.
Turning to `O=C(O)CN1CCC(n2c(C3CC3)nc3ccc(C(c4ccc(Cl)cc4)c4ccc(Cl)cc4)cc32)CC1` [Example 63], the EC50 in experiment [1] was more than 21000 nM; in experiment [2] it was more than 10000 nM.
In the same order, the values of `O=C(c1nc[nH]n1)N1CCC(n2c(C3CC3)nc3ccc(C(c4ccc(Cl)cc4)c4ccc(Cl)cc4)cc32)CC1` [Example 201] are 990 nM and 63.8 nM.
In the same order, the values of `COc1cc(S(=O)(=O)N2CCC(n3c(C4CC4)nc4ccc(C(CO)(c5ccc(Cl)cc5)c5ccc(Cl)cc5)cc43)CC2)ccc1C(N)=O` [Example 192] are more than 10000 nM and 5050 nM.
For `O=C(OC[C@@H](O)[C@H](O)CO)N1CCC(n2c(C3CC3)nc3ccc(C(c4ccc(Cl)cc4)c4ccc(Cl)cc4)cc32)CC1` [Example 102], the EC50 in experiment [1] was 8140 nM; in experiment [2], 33.3 nM.
For `Clc1ccc(C(c2ccc3nc(C4CC4)n(Cc4ccccn4)c3c2)c2nccs2)cc1` (stereo not drawn) [Example 403], in that order: more than 10000 nM and 569 nM.
For `O=S(=O)(N1CCC(n2c(C3CCCO3)nc3ccc(C(O)(c4ccc(Cl)cc4)c4ccc(Cl)cc4)cc32)CC1)C(F)(F)F` (stereo not drawn) [Example 285], in that order: more than 10000 nM and 3.4 nM.
In the same order, the values of `O=C(O)c1cccc(S(=O)(=O)N[C@H]2CC[C@@H](n3c(C4CC4)nc4ccc(C(c5ccc(Cl)cc5)c5ccc(Cl)cc5)cc43)CC2)c1` [Example 43] are 12100 nM and 113 nM.
Consider `O=C(O)c1ccc(CN2CCC(n3c(C4CC4)nc4ccc(C(c5ccc(Cl)cc5)c5ccc(Cl)cc5)cc43)CC2)cc1` [Example 147], for which the figures for the EC50 in experiment [1] and in experiment [2] were 7560 nM and 10.2 nM, respectively.
For `CCOC(=O)COc1ccc(-n2c(C3CC3)nc3ccc(C(c4ccc(Cl)cc4)c4ccc(Cl)cc4)cc32)cc1` [Example 170], in that order: 314 nM and 4.4 nM.
Turning to `CCc1nc2ccc(C(O)(c3ccc(Cl)cc3)c3ccc(Cl)cc3)cc2n1C1CCN(S(=O)(=O)C(F)(F)F)CC1` [Example 308], the EC50 is more than 10000 nM in experiment [1] and 63.6 nM in experiment [2].
In the same order, the values of `O=C(O)c1cccc(-c2cccc(CCn3c(C4CC4)nc4ccc(C(c5ccc(Cl)cc5)c5ccc(Cl)cc5)cc43)c2)c1` [Example 11] are 4970 nM and 49.4 nM.
For `O=S(=O)(c1ccccc1)N1CCC(n2c(C3CC3)nc3ccc(C(c4ccc(Cl)cc4)c4ccc(Cl)cc4)cc32)CC1` [Example 283], in that order: 960 nM and 3.6 nM.
In the same order, the values of `CNC(=O)c1cccc(S(=O)(=O)N2CCC(n3c(C4CC4)nc4ccc(C(c5ccc(Cl)cc5)c5ccc(Cl)cc5)cc43)CC2)c1` [Example 186] are more than 10000 nM and 25.3 nM.
On to `COc1cc(S(=O)(=O)N2CCC(n3c(C4CC4)nc4ccc(C(CO)(c5ccc(Cl)cc5)c5ccc(Cl)cc5)cc43)CC2)ccc1C(=O)O` [Example 193], for which the EC50 in experiment [1] and in experiment [2] was more than 10000 nM in each case.
For `COC(=O)c1cc(OCCn2c(C3CC3)nc3ccc(C(c4ccc(Cl)cc4)c4ccc(Cl)cc4)cc32)cc(C(F)(F)F)c1` [Example 18], the values for the EC50 in experiment [1] and in experiment [2] were more than 10000 nM and 53.3 nM, respectively.
For `Clc1ccc(-c2nc3ccc(C(c4ccc(Cl)cc4)c4nccs4)cc3n2C2CCCCC2)cc1` (stereo not drawn) [Example 442], in that order: more than 10000 nM and 3400 nM.
In the same order, the values of `NC(=O)c1cccc(CN2CCC(n3c(C4CC4)nc4ccc(C(c5ccc(Cl)cc5)c5ccc(Cl)cc5)cc43)CC2)n1` [Example 104] are 6000 nM and 12.1 nM.
Consider `O=C(NCCO)c1ccc(S(=O)(=O)N2CCC(n3c(C4CC4)nc4ccc(C(c5ccc(Cl)cc5)c5ccc(Cl)cc5)cc43)CC2)cn1` [Example 204], for which the EC50 is more than 10000 nM in experiment [1] and 94.4 nM in experiment [2].
In the same order, the values of `Clc1ccc(C(c2ccc3nc(C4CC4)n(-c4cccc(Cl)c4)c3c2)c2nccs2)cc1` (stereo not drawn) [Example 432] are more than 10000 nM and 64.3 nM.
In the same order, the values of `CCOC(=O)N1CCC(n2c(CC)nc3ccc(C(c4ccc(Cl)cc4)c4ccc(Cl)cc4)cc32)CC1` [Example 332] are 4700 nM and 14.7 nM.

As a reminder, the EC50 is the midpoint of the concentration-response curve.
